Measured values taken from BindingDB's records for PubMed 20033049 (Institute).

What was measured:
[1] = Inhibition of TEL fused BMX (unknown origin) transformed in mouse BaF3 cells
[2] = Inhibition of TEL fused BLK (unknown origin) transformed in mouse BaF3 cells

IC50 [1]: 0.0004 µM
IC50 [2]: 0.02 µM
SMILES: C=CC(=O)Nc1cccc(Oc2nc(Nc3ccc(N4CCN(C)CC4)cc3)ncc2Cl)c1
